Consider nine molecules from PubChem BioAssay (NCI).

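Dose response: 5 concentrations. Exposure: 48 h. Format: 96-well plates. Endpoint: linear interpolation; highest concentration if not reached. TGI: total growth inhibition.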

What all share (experiment): inhibition of tumour cell growth, NCI panel, 48 h
For experiment [1], the system named is CAKI-1 renal.
Experiment [2] has as its system XF 498 CNS.
Experiment [3] concerns SR leukemia.
Experiment [4] concerns CCRF-CEM leukemia.
Experiment [5] relates to SN12C renal.
The test system of experiment [6] is HOP-92 NSCLC.
The test system of experiment [7] is HL-60(TB) leukemia.
In experiment [8] the test system is RPMI-8226 leukemia.
Experiment [9] has as its system ACHN renal.
Experiment [10] deals with SF-268 CNS.
In experiment [11] the test system is HCT-116 colon.
Experiment [12] relates to NCI-H460 lung.
Experiment [13] concerns SK-MEL-28 melanoma.
The subject of experiment [14] is NCI-H23 lung.
Experiment [15] concerns SK-MEL-2 melanoma.
For experiment [16], the system named is OVCAR-3 ovarian.
Experiment [17] has as its system OVCAR-5 ovarian.

On to `Cc1csc(=S)n1OC(=O)NC1CCCCC1`, for which the TGI in [1] is over 100 µM; in experiment [2] it was over 100 µM; in experiment [3], 47.3 µM; in [4] it was over 28.2 µM; in experiment [5], over 100 µM; in experiment [6] it was over 100 µM. The TGI in [7] was 56.5 µM; in experiment [8], over 71.8 µM; in [9], over 100 µM; in experiment [10], over 100 µM; in experiment [11] it was 96.8 µM; in [12], over 100 µM. The TGI was over 69.7 µM in experiment [13], over 47.3 µM in experiment [14], over 100 µM in experiment [15] and over 100 µM in experiment [16].

`CSc1ccc(C2OC(=O)c3ccccc32)c2ccccc12` (centres undefined): the TGI in [1], in [2], in experiment [3], in experiment [4], in experiment [5] and in [6] was over 100 µM each time. Further, the TGI in [7], in [8], in experiment [9], in experiment [10], in [11] and in experiment [12] was over 100 µM each time. Moreover, the TGI in experiment [17], in experiment [13] and in experiment [15] was over 100 µM in each case.

With `Cc1[nH]ccc2c1[nH]c1cc(=O)ccc12`, the TGI in experiment [1], in [2], in experiment [4], in [5], in experiment [6] and in experiment [7] was over 100 µM throughout. Besides, the TGI in [8], in experiment [9], in experiment [10], in [11], in [12] and in [17] was over 100 µM each time. For the same molecule, the TGI in experiment [13], in experiment [14], in experiment [15] and in experiment [16] was over 100 µM each time.

Turning to `Nc1ccn(CCNCCn2cnc3nc(N)[nH]c(=O)c32)c(=O)n1`, the TGI in experiment [2], in [3], in experiment [5], in experiment [6], in experiment [7] and in [8] was over 100 µM throughout. The TGI in experiment [9], in experiment [10], in experiment [11], in experiment [12], in experiment [17] and in [13] was over 100 µM each time. Moreover, the TGI in experiment [14], in [15] and in experiment [16] was over 100 µM each time.

For `COc1ccc(C2=Nc3ccccc3NC(=O)C2)cc1`, the TGI in [1] is over 100 µM; in experiment [2] it was 36.8 µM; in experiment [3], over 100 µM; in experiment [4] it was over 100 µM; in [5] it was over 100 µM; in [6] it was 54 µM. Moreover, the TGI in experiment [7] is 42.1 µM; in [9], over 100 µM; in [10], 78.1 µM; in [11], 42.3 µM; in [12], over 100 µM; in experiment [17] it was over 100 µM. Also, the TGI is over 100 µM in experiment [13], 67 µM in experiment [14], over 100 µM in experiment [15] and over 100 µM in experiment [16].

Take `O=C(CSc1nnc(-c2ccc(N=Cc3ccc(Cl)cc3)cc2)o1)Nc1ccc(Cl)cc1Cl`: the TGI in [1] is over 100 µM; in [2] it was 47.9 µM; in experiment [4], over 100 µM; in experiment [5], 49 µM; in experiment [6], 50.5 µM; in [7], over 100 µM. The TGI in experiment [8] was over 100 µM; in [9], over 100 µM; in experiment [10], 64.9 µM; in experiment [11], 38.1 µM; in [12] it was over 100 µM; in experiment [17], over 100 µM. The TGI in experiment [13] came out at 74.6 µM; in experiment [14], 59.3 µM; in [15], 47.3 µM.

`COc1cc(OC)c2c(c1)C(=O)C(CC(C)O)=CC2=O` (centres undefined): the TGI in experiment [1] was determined as 34.3 µM; in experiment [2], 27 µM; in experiment [3], 7.44 µM; in [4], 33.5 µM; in experiment [5], 32.6 µM; in experiment [6] it was 23.3 µM. The TGI amounted to 21.8 µM in [7]; 46.4 µM in experiment [8]; 30.2 µM in experiment [9]; 33 µM in experiment [10]; 25 µM in experiment [11]; 40.4 µM in [12]. Further, the TGI came to 32.3 µM in [17]; 31.5 µM in experiment [13]; 34.9 µM in [14]; 36.2 µM in experiment [15]; 18.3 µM in experiment [16].

For `CCc1ccccc1NC(=O)C(=O)CC(=O)c1sc(Nc2ccccc2)nc1C`, the TGI in experiment [1], in [2], in experiment [3], in experiment [4], in experiment [5] and in experiment [6] was over 100 µM each time. Moreover, the TGI in experiment [7], in [9], in experiment [10], in experiment [11], in [12] and in experiment [17] was over 100 µM in each case. Moreover, the TGI in experiment [13], in experiment [14], in experiment [15] and in experiment [16] was over 100 µM in each case.

Consider `Nn1c(NNC(=O)C(=O)Nc2cc(Cl)c(Cl)cc2Cl)n[nH]c1=S`, for which the TGI in experiment [1], in [2], in experiment [4], in [5], in [6] and in experiment [9] was over 100 µM throughout. Further, the TGI in experiment [10], in experiment [11], in experiment [12], in experiment [17], in [13] and in experiment [14] was over 100 µM throughout. Further, the TGI in experiment [16] was over 100 µM.
